Experimental data reported in patent US20260284422A1, “BRAIN TUMOR TREATMENT OR PREVENTION OF RECURRENCE WITH LOW INTENSITY AND VARIABLE FREQUENCY MAGNETIC STIMULATION” (ACTIPULSE NEUROSCIENCE INC., priority 2023, published 2026).

Experiment: Evans Blue dye uptake into brain (BBB permeability) in mice given rTMS or sham
Format: in vivo, wild-type C57BL/6 mice
Text: An in vivo mouse model was used to evaluate the use of rTMS to open the BBB. Ten wild-type C57BL/6 mice where anesthetized and received an intravenous (IV) injection of a 2% Evans Blue dye (in a vehicle of 0.9% NaCl). Evans Blue dye (also referred to as EBD or T-1824) is a non-toxic, azo-based injectable dye that presents visually with a dark blue/brown color. The dye has an affinity for serum albumin and is generally used to assess the permeability of the BBB in vivo. Most tissues will present darker, but neural tissue generally remains unstained. Mice injected with Evans Blue dye were then administered rTMS or a sham treatment and a histological analysis of the brain was performed to evaluate changes in permeability of the BBB. rTMS was administered according to Table 1.
The dye was administered as 100 μL 2% Evans blue (in 0.9% NaCl) via retro orbital injection. Mice were then administered rTMS or a sham (no magnetic field), e.g., as shown in the method overview depicted in FIGS. 2 and 3 for either 1 hr. or 30 min. Mice were euthanized, perfused with 10 mL PBS to expel blood from the organs, and analyzed for the presence of hemorrhage and lesion, e.g., as shown in the representative imaging in FIG. 3. Mice presented as lacking hemorrhage, lesion, or any signs of tissue damage.
Brains were then submerged in 20% sucrose for 2 hr. and embedded in optimal cutting temperature compound (OCT compound) and frozen. The brain was then sectioned at 16 μm thickness, rinsed with PBS, and mounted for scanning at 40× magnification. Section imaging was performed using a digital slide scanner.
An imaging software was used to evaluate the pixelate density and area of staining in brain sections for calculating a comparison of Evans Blue dye uptake into the brain tissue.

## Cc1cc(-c2ccc(/N=N/c3ccc4c(S(=O)(=O)O)cc(S(=O)(=O)O)c(N)c4c3O)c(C)c2)ccc1/N=N/c1ccc2c(S(=O)(=O)O)cc(S(=O)(=O)O)c(N)c2c1O [Evans Blue, Evans Blue dye]
100 μL 2% Evans blue retro-orbital, then rTMS, 16 μm brain sections, n=4
  Mean area of brain section stained with Evans Blue, rTMS group: 11.12 mm^2
100 μL 2% Evans blue retro-orbital, then sham (no magnetic field), 16 μm brain sections, n=4
  Mean area of brain section stained with Evans Blue, sham group: 5.665 mm^2
Unpaired t-test, P 0.004, n=4 per group
  Difference between means ± SEM of stained area (rTMS vs sham): 5.456 ± 1.209 mm^2
